Reference: patent publication US20250333407A1, “Compounds and Their Use for Treatment of Hemoglobinopathies” (Bristol-Myers Squibb Company, priority 2024, published 2025)

Assays:
Assay type in all cases: cell-based
ZBTB7A = biological target: T1, ZBTB7A (Homo sapiens, UniProt O95365+Q96SW2); assay: HUDEP-2 ZBTB7A HiBiT degradation assay; conditions: HiBiT-tagged ZBTB7A degradation in HUDEP-2 cells, 24 hours of treatment; read-out: ZBTB7A EC50
T1 construct: HUDEP-2 cells engineered to express a HiBiT tag in either the WIZ (Widely interspaced zinc finger) or ZBTB7A
Protocol: (§1) WIZ Assay and ZBTB7A EC50 Assays. The HiBiT degradation assays for WIZ and ZBTB7A in HUDEP-2 cells were performed as described below. HUDEP-2 cells engineered to express a HiBiT tag in either the WIZ (Widely interspaced zinc finger) or ZBTB7A (Zinc Finger And BTB Domain Containing 7A) proteins were maintained in low attachment flasks in StemSpan SFEM II media supplemented with Penicillin-Streptomycin (50 U/mL), rhSCF (50 ng/mL), rhEPO (3 IU/mL), dexamethasone (0.4 μg/mL) and doxycycline (1 μg/mL). Prior to start of the assay, cell count and viability were measured by trypan blue exclusion using the Vi-cell XR cell viability analyzer.
For the HUDEP-2 ZBTB7A HiBiT assay, cell count and viability were measured by trypan blue exclusion using the Vi-cell XR cell viability analyzer and the cells were transferred to a 50 mL conical and centrifuged at 500 g for five minutes. Cells were resuspended in fresh IMDM media supplemented with L-Glutamine (1×), Penicillin-Streptomycin (50 U/mL), holo-transferrin (330 μg/mL), heparin (2 IU/mL), r-human Insulin (10 μg/mL), rhEPO (3 IU/mL), rhSCF (100 ng/mL)+Dox (1 μg/mL) and 5% human plasma in low attachment flasks, which were placed in a 37° C. incubator with 5% CO2. After 48 hours, cell count and viability were measured by trypan blue exclusion using the Vi-cell XR cell viability analyzer. The HUDEP-2 ZBTB7A cells were transferred to a 50 mL conical, centrifuged at 500 g for five minutes and resuspended at a density of 1.0×10^6 cells/ml in IMDM media supplemented with L-Glutamine (1×), Penicillin-Streptomycin (50 U/mL), holo-transferrin (330 μg/mL), heparin (2 IU/mL), r-human Insulin (10 μg/mL), rhEPO (3 IU/mL), rhSCF (100 ng/mL)+Dox (1 μg/mL) and 5% human plasma. Forty microliters of cell suspension was dispensed into 384-well Low Flange White Flat Bottom Polystyrene TC-treated Microplates containing pre-dispensed compounds, using a VIAFLO 384 liquid hander, and placed in a 37° C. incubator with 5% CO2. […] After 24 hours of treatment, 40 μL Nano-Glo HiBiT Lytic Detection System reagent was dispensed into each well using a VIAFLO 384 liquid hander. Plates were incubated for 25 minutes at room temperature and the luminescence was read as relative luminescent units using the EnVision plate reader. EC50 and Y-min values were calculated using curves calculated from dotmatics software after the normalization to the DMSO control of 10 different concentrations: 10, 3.33, 1.11, 0.37, 0.12, 0.04 0.0137, 0.0046, 0.0015 and […] respectively.

WIZ = biological target: T2, WIZ (Homo sapiens, UniProt O95785+Q96SW2); assay: HUDEP-2 WIZ HiBiT degradation assay; conditions: HiBiT-tagged WIZ degradation in HUDEP-2 cells, 24 hours of treatment; read-out: WIZ EC50
T2 construct: HUDEP-2 cells engineered to express a HiBiT tag in either the WIZ (Widely interspaced zinc finger) or ZBTB7A
Protocol: as §1
For the HUDEP-2 WIZ HiBiT assay, cells were transferred to a 50 mL conical and centrifuged at 500 g for five minutes. Cells were resuspended in fresh StemSpan SFEM II media supplemented with Penicillin-Streptomycin (50 U/mL), rhSCF (50 ng/mL), rhEPO (3 IU/mL), dexamethasone (0.4 μg/mL) and doxycycline (1 μg/mL) at a density of 1.0×10^6 cells/ml. Forty microliters of cell suspension was dispensed into 384-well Low Flange White Flat Bottom Polystyrene TC-treated Microplates containing pre-dispensed compounds, using a VIAFLO 384 liquid hander, and placed in a 37° C. incubator with 5% CO2. […] After 24 hours of treatment, 40 μL Nano-Glo HiBiT Lytic Detection System reagent was dispensed into each well using a VIAFLO 384 liquid hander. Plates were incubated for 25 minutes at room temperature and the luminescence was read as relative luminescent units using the EnVision plate reader. EC50 and Y-min values were calculated using curves calculated from dotmatics software after the normalization to the DMSO control of 10 different concentrations: 10, 3.33, 1.11, 0.37, 0.12, 0.04 0.0137, 0.0046, 0.0015 and […] respectively.

HbF = HbF HiBiT induction assay in HUDEP-2 cells; conditions: HUDEP-2 cells with HiBiT tag in HBG1/2, 72 hours of treatment; area under the dose response curve, higher AUC = greater HbF induction
Protocol: HbF HiBiT induction assay. The HiBiT induction assay for HbF in HUDEP-2 cells was performed as described below. HUDEP-2 cells engineered to express a HiBiT tag in HBG1/2 were maintained at a density of 0.1-1×10^6 cells/ml in StemSpan SFEM II supplemented with 1% penicillin/streptomycin, hSCF (50 ng/mL), erythropoietin (EPO; 3 IU/mL), dexamethasone (DEX; 0.4 μg/mL), and doxycycline hyclate (DOX; 1 μg/mL). The cells were cultured in low adherence flasks, in a humidified incubator, set at 37° C. with 5% CO2. Cell counts and viability were measured by trypan blue exclusion using the Vi-CELL XR cell viability analyzer and the cell growth was consistently maintained in log phase.
Prior to the start of experiments, HbF HiBiT-tagged HUDEP-2 cells were transferred to a 50 mL conical and centrifuged at 500×g for 5 minutes, the supernatant removed, and the pellet washed in 5 mL of 1×PBS. The washed cells were centrifuged again at 500×g for 5 minutes and resuspended in IMDM containing; 1×glutamine, 1×penicillin/streptomycin, holo-transferrin (330 μg/mL), heparin (2 IU/mL), r-human insulin (10 μg/mL), EPO (3 IU/mL), 5% human plasma, hSCF (100 ng/mL) and DOX (1 μg/mL) to a final density of 0.3×10^6 cells/mL. Forty microliters of cell suspension were dispensed into 384-well Low Flange White Flat Bottom Polystyrene TC-treated Microplates containing pre-dispensed compounds, using a VIAFLO 384 liquid hander, and placed in a humidified incubator at 37° C. with 5% CO2. […] After 72 hours of treatment, 40 μL of Nano-Glo HiBiT Lytic Solution (prepared according to manufacturer's instructions) were dispensed into each well using a VIAFLO 384 liquid handler, and the plates were shaken for 20 seconds. Plates were incubated for 20 minutes at room temperature, and the luminescence was read as relative luminescent units using an EnVision plate reader.
Dose response curves were generated, and EC50, Ymax, and then area under the curve (AUC) values were calculated. HbF induction was measured using the calculated area under the curve (AUC) value, with higher AUC values indicative of greater HbF induction relative to lower AUC values.

T1 sequence (O95365 whole entry): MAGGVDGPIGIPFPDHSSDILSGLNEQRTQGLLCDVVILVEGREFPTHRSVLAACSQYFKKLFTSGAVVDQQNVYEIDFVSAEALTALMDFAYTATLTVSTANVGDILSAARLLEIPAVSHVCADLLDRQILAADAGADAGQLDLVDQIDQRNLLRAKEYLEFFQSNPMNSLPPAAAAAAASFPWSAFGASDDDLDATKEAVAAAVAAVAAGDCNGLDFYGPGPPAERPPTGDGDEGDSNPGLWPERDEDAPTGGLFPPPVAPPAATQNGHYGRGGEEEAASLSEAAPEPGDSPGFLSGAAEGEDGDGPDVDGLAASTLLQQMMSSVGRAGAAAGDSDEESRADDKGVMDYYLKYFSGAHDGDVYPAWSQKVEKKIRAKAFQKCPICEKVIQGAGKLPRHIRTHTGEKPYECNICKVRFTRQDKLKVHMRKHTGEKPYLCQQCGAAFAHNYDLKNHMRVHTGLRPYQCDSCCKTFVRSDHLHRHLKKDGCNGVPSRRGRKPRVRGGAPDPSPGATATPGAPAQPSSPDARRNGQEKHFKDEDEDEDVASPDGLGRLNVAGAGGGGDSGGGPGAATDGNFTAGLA
T1 sequence (Q96SW2 whole entry): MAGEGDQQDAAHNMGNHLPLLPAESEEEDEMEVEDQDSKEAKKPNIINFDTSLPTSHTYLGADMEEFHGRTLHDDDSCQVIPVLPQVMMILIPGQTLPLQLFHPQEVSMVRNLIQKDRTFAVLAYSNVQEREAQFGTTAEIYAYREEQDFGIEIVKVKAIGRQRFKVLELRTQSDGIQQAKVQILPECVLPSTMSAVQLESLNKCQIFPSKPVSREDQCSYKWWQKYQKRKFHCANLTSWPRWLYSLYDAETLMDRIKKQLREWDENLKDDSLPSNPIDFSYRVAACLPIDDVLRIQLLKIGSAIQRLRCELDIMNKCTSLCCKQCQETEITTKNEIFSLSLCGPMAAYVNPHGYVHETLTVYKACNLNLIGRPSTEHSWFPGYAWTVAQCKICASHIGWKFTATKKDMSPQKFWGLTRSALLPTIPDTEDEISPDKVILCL
T1 sequence (Q16531 whole entry partner): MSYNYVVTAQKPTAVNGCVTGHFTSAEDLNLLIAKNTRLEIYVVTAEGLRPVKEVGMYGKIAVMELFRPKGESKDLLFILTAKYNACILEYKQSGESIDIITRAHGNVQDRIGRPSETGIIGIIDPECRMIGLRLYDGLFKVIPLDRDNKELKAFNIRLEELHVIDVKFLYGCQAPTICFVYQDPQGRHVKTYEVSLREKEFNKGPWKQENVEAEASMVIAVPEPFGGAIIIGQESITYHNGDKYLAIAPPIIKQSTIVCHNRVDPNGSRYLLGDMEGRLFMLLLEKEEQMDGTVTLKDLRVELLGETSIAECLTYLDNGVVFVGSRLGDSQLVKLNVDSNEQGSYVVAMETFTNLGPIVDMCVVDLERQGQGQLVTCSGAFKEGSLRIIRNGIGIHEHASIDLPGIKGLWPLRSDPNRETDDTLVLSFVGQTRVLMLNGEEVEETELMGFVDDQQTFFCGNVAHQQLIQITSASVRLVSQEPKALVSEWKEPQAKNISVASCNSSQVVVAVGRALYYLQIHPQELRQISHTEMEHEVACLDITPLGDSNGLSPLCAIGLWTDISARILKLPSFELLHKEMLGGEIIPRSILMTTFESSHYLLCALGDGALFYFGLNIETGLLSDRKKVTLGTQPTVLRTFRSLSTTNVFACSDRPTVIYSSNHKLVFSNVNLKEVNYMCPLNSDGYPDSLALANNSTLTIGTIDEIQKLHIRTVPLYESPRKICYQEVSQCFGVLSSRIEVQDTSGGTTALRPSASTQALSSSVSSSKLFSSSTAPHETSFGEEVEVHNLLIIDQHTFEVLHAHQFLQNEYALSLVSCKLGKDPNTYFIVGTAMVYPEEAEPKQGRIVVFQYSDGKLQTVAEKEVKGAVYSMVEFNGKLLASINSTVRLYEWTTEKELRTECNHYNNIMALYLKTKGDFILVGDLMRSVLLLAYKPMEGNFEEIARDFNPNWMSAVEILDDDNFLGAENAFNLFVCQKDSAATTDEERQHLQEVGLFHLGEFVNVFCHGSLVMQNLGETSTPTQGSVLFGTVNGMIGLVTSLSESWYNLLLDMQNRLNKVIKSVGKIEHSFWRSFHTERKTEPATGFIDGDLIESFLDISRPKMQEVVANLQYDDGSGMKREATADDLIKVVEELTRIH
T2 sequence (O95785 whole entry): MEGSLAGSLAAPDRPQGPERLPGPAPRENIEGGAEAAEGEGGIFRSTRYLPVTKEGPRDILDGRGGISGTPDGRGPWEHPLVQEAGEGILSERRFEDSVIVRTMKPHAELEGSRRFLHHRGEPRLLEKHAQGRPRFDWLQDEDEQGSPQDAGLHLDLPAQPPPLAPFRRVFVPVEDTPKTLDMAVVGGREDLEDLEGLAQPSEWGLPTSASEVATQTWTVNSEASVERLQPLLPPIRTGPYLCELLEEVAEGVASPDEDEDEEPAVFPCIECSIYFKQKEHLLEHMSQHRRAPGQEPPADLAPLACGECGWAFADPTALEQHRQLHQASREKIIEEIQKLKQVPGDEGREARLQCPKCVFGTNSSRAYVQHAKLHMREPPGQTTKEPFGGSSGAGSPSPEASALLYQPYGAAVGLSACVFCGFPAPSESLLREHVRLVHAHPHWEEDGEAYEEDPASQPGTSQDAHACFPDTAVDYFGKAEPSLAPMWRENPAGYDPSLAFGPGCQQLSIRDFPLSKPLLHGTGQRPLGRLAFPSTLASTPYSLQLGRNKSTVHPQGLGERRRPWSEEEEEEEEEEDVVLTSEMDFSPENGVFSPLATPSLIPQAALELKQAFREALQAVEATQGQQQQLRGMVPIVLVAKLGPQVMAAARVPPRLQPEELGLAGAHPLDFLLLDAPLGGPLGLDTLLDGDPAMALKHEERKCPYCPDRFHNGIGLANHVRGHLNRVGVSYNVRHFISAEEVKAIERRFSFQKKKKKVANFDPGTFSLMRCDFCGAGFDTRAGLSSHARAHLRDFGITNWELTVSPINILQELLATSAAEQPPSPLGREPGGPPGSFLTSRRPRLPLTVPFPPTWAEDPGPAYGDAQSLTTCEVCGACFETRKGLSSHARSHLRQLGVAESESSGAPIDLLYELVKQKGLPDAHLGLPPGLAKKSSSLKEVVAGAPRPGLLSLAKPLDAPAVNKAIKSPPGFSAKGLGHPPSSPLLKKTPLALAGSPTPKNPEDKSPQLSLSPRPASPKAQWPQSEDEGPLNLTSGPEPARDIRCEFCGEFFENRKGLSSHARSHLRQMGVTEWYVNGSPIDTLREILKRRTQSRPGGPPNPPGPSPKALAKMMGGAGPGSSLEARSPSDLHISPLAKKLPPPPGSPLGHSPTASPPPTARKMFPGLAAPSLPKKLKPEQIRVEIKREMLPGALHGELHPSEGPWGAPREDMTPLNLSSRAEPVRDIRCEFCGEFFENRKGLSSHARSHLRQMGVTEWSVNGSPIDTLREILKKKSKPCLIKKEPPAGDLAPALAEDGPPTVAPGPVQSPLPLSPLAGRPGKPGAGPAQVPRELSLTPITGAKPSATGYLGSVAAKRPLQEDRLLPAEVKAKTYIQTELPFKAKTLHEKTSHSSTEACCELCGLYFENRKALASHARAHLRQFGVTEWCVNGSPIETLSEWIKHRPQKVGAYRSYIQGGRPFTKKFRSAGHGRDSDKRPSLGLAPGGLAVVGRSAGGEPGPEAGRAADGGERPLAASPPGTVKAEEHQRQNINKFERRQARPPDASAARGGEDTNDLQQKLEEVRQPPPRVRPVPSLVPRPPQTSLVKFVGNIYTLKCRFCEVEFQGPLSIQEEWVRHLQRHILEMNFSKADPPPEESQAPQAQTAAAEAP
T2 sequence (Q96SW2 whole entry): as the sequence (Q96SW2 whole entry) above
T2 sequence (Q16531 whole entry partner): as the sequence (Q16531 whole entry partner) above

Row | SMILES | DC50 (ZBTB7A) [nM] | DC50 (WIZ) [nM] | HBF AUC (HbF)
1 | Cc1cc(-c2cc3c(cc2Nc2cccc4c2C(=O)N([C@@H]2CCC(=O)NC2=O)C4=O)N(C)C(=O)OC3)ccn1 [Compound 12, (R)-2-(2,6-dioxopiperidin-3-yl)-4-((1-methyl-6-(2-methylpyridin-4-yl)-2-oxo-1,4-dihydro-2H-benzo[d][1,3]oxazin-7-yl)amino)isoindoline-1,3-dione] | 34 | 37 | + (+ = 15 ≤ AUC < 100)
2 | Cc1cc(-c2cc3c(cc2Nc2cccc4c2C(=O)N(C2CCC(=O)NC2=O)C4=O)N(C)C(=O)CO3)cc(F)c1F (stereo not drawn) [Compound 13, 4-((7-(3,4-difluoro-5-methylphenyl)-4-methyl-3-oxo-3,4-dihydro-2H-benzo[b][1,4]oxazin-6-yl)amino)-2-(2,6-dioxopiperidin-3-yl)isoindoline-1,3-dione] | 38 | 50 | + (+ = 15 ≤ AUC < 100)
3 | CNc1cc(-c2cc3c(cc2Nc2cccc4c2C(=O)N(C2CCC(=O)NC2=O)C4=O)N(C)C(=O)CO3)ccn1 (stereo not drawn) [Compound 14, 2-(2,6-dioxopiperidin-3-yl)-4-((4-methyl-7-(2-(methylamino)pyridin-4-yl)-3-oxo-3,4-dihydro-2H-benzo[b][1,4]oxazin-6-yl)amino)isoindoline-1,3-dione] | 17 | 12 | + (+ = 15 ≤ AUC < 100)
4 | CN(C)c1cc(-c2cc3c(cc2Nc2cccc4c2C(=O)N(C2CCC(=O)NC2=O)C4=O)N(C)C(=O)CO3)ccn1 (stereo not drawn) [Compound 15, 4-((7-(2-(dimethylamino)pyridin-4-yl)-4-methyl-3-oxo-3,4-dihydro-2H-benzo[b][1,4]oxazin-6-yl)amino)-2-(2,6-dioxopiperidin-3-yl)isoindoline-1,3-dione] | 22 | 7 | + (+ = 15 ≤ AUC < 100)
5 | CCOc1cc(-c2cc3c(cc2Nc2cccc4c2C(=O)N(C2CCC(=O)NC2=O)C4=O)N(C)C(=O)CO3)cc(C)n1 (stereo not drawn) [Compound 16, 2-(2,6-dioxopiperidin-3-yl)-4-((7-(2-ethoxy-6-methylpyridin-4-yl)-4-methyl-3-oxo-3,4-dihydro-2H-benzo[b][1,4]oxazin-6-yl)amino)isoindoline-1,3-dione] | 73 | 32 | + (+ = 15 ≤ AUC < 100)
6 | COc1cc(-c2cc3c(cc2Nc2cccc4c2C(=O)N([C@H]2CCC(=O)NC2=O)C4=O)N(C)C(=O)CO3)ccn1 [Compound 17, (S)-2-(2,6-dioxopiperidin-3-yl)-4-((7-(2-methoxypyridin-4-yl)-4-methyl-3-oxo-3,4-dihydro-2H-benzo[b][1,4]oxazin-6-yl)amino)isoindoline-1,3-dione] | 18 | 13 | +++ (+++ = AUC ≥ 150)
7 | Cc1cc(-c2cc3c(cc2Nc2cccc4c2C(=O)N([C@H]2CCC(=O)NC2=O)C4=O)N(C)C(=O)CO3)ccn1 [Compound 18, (S)-2-(2,6-dioxopiperidin-3-yl)-4-((4-methyl-7-(2-methylpyridin-4-yl)-3-oxo-3,4-dihydro-2H-benzo[b][1,4]oxazin-6-yl)amino)isoindoline-1,3-dione] | 11 | 11 | +++ (+++ = AUC ≥ 150)
8 | Cc1cc(-c2cc3c(cc2Nc2cccc4c2C(=O)N(C2CCC(=O)NC2=O)C4=O)N(C)C(=S)CC3)ccn1 (stereo not drawn) [Compound 19, 2-(2,6-dioxopiperidin-3-yl)-4-((1-methyl-6-(2-methylpyridin-4-yl)-2-thioxo-1,2,3,4-tetrahydroquinolin-7-yl)amino)isoindoline-1,3-dione] | 21 | 28 | ++ (++ = 100 ≤ AUC < 150)
9 | CC[C@@H]1Oc2cc(-c3ccnc(C)c3)c(Nc3cccc4c3C(=O)N([C@H]3CCC(=O)NC3=O)C4=O)cc2N(C)C1=O [Compound 20, 2-((S)-2,6-dioxopiperidin-3-yl)-4-(((S)-2-ethyl-4-methyl-7-(2-methylpyridin-4-yl)-3-oxo-3,4-dihydro-2H-benzo[b][1,4]oxazin-6-yl)amino)isoindoline-1,3-dione] | 12 | 14 | + (+ = 15 ≤ AUC < 100)
10 | Cc1cc(-c2cc3c(cc2Nc2cccc4c2C(=O)N([C@H]2CCC(=O)NC2=O)C4=O)N(C)C(=O)O[C@@H]3C)ccn1 [Compound 21, 4-(((R)-1,4-dimethyl-6-(2-methylpyridin-4-yl)-2-oxo-1,4-dihydro-2H-benzo[d][1,3]oxazin-7-yl)amino)-2-((S)-2,6-dioxopiperidin-3-yl)isoindoline-1,3-dione] | 12 | 17 | + (+ = 15 ≤ AUC < 100)
11 | Cc1cc(-c2cc3c(cc2Nc2cccc4c2C(=O)N([C@H]2CCC(=O)NC2=O)C4=O)N(C)C(=O)O[C@H]3C)ccn1 [Compound 22, 4-(((S)-1,4-dimethyl-6-(2-methylpyridin-4-yl)-2-oxo-1,4-dihydro-2H-benzo[d][1,3]oxazin-7-yl)amino)-2-((S)-2,6-dioxopiperidin-3-yl)isoindoline-1,3-dione] | 13 | 17 | +++ (+++ = AUC ≥ 150)
12 | Cc1cc(-c2cc3c(cc2Nc2cccc4c2C(=O)N([C@H]2CCC(=O)NC2=O)C4=O)N(C)C(=O)[C@H](C)O3)cc(C)n1 [Compound 23, 4-(((S)-7-(2,6-dimethylpyridin-4-yl)-2,4-dimethyl-3-oxo-3,4-dihydro-2H-benzo[b][1,4]oxazin-6-yl)amino)-2-((S)-2,6-dioxopiperidin-3-yl)isoindoline-1,3-dione] | 15 | 11 | ++ (++ = 100 ≤ AUC < 150)
